In patent US20040024024A1, “Aromatic sulfone hydroxamates and their use as protease inhibitors” (priority 2001, published 2004):

How the values were obtained:
Experiment in all cases: In vitro MMP inhibition, Ki determination (fluorogenic substrate II)
Type in all cases: biochemical
[1] = biological target: T1, Human recombinant MMP-9 (Homo sapiens, UniProt P14780)
T1 construct: made in house; host or cells: MMP-9-transfected HT1080 cells (spent media)
Outline: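 MMP-9 proenzyme purified from transfected HT1080 cell media, activated with APMA, trypsin or recombinant MMP-3; hydroxamates diluted in pH 7.5 Tris/NaCl/CaCl2 buffer. Cleavage of 4 μM MCA/Dpa substrate II followed by fluorescence (ex 330/em 420 nm), 1 h at room temperature. Ki from Morrison-equation fit, substrate at/below Km, uncorrected.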

[2] = biological target: T2, Human recombinant MMP-1 (Homo sapiens, UniProt P03956)
T2 construct: made in house; host or cells: MMP-1-transfected HT-1080 cells (spent media)
T2 sequence (P03956 100-469): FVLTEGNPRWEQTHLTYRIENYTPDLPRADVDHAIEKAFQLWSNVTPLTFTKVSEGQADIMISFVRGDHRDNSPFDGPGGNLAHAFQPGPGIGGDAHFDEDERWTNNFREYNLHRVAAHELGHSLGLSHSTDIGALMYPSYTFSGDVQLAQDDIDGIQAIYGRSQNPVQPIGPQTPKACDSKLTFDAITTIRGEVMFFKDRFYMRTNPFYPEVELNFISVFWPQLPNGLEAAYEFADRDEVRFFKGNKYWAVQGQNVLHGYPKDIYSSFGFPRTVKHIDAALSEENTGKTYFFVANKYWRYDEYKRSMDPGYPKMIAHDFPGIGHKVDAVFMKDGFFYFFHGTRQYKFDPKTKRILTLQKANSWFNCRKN
Outline: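 Activated human recombinant MMP-1 (APMA- or trypsin-activated; proenzyme from transfected HT-1080 cells) incubated 1 hr at room temperature with 4 μM MCA/Dpa fluorogenic substrate II at or below Km in Tris buffer pH 7.5 with CaCl2. Fluorescence ex 330/em 420 nm; Ki from Morrison-equation non-linear regression, uncorrected for substrate.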

[3] = biological target: T3, Human recombinant MMP-14 (Homo sapiens, UniProt P50281)
T3 construct: The catalytic domain enzyme was expressed in E. coli inclusion bodies, solubilized in urea; made in house
Outline: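 Refolded E. coli-expressed MMP-14 catalytic domain, APMA- or trypsin-activated, incubated 1 h at room temperature with 4 μM fluorogenic substrate II in pH 7.5 Tris/NaCl/CaCl2 buffer; fluorescence read at 330/420 nm. Ki from Morrison-equation non-linear regression, substrate at or below Km, uncorrected for substrate.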

[4] = substrate (II) 4 μM, 1 hr room temperature, apparent Ki, values in parenthesis

T1 sequence (P14780 107-707 limits assumed): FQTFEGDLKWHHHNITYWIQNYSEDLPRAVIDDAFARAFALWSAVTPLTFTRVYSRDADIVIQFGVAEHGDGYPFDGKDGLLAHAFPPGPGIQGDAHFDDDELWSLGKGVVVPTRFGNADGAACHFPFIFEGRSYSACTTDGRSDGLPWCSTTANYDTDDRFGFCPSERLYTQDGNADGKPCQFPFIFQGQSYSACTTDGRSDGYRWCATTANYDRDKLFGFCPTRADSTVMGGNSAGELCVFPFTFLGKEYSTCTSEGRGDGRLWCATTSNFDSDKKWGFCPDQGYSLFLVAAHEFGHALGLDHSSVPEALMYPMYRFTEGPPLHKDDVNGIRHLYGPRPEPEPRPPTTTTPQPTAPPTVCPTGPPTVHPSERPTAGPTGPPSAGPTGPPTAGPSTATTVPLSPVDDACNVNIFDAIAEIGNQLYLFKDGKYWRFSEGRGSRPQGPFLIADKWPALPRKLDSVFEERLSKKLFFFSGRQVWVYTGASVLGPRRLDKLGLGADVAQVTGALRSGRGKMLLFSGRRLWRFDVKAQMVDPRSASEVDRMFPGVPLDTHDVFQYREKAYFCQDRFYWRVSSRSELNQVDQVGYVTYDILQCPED

| Ki ([1]; value in parentheses) | Ki ([2]; value in parentheses) | Ki ([3]; value in parentheses) | Structure (SMILES) | further results |
| --- | --- | --- | --- | --- |
| 1770 nM | > 10 µM | > 10 µM | COCCN1CCC(C(=O)NO)(S(=O)(=O)c2ccc(OCCc3cccc(-c4ccc(F)c(F)c4)c3)cc2)CC1 [Example 549] |  |
| 2070 nM | > 10 µM | > 10 µM | CCN1CCC(C(=O)NO)(S(=O)(=O)c2ccc(OCCCc3cccc(-c4ccc(Cl)cc4)c3)cc2)CC1 [Example 526] |  |
| 787 nM | > 10 µM | > 10 µM | COCCN1CCC(C(=O)NO)(S(=O)(=O)c2ccc(OCCc3cccc(-c4ccc(F)cc4)c3)cc2)CC1 [Example 544] |  |
| 212 nM | 8.97 µM | 3.5 µM | O=C(NO)C1(S(=O)(=O)c2ccc(OCCc3ccccn3)cc2)CCOCC1 [Example 556] |  |
| 1270 nM | > 10 µM | > 10 µM | COCCN1CCC(C(=O)NO)(S(=O)(=O)c2ccc(OCCc3cccc(-c4ccc(F)cc4F)c3)cc2)CC1 [Example 546] |  |
| 2310 nM | > 10 µM | > 10 µM | O=C(NO)C1(S(=O)(=O)c2ccc(OCCCc3ccc(F)c(-c4ccccc4)c3)cc2)CCOCC1 [Example 504] |  |
| 1870 nM | > 10 µM | > 10 µM | O=C(NO)C1(S(=O)(=O)c2ccc(OCCCc3cccc(-c4ccc(O)cc4)c3)cc2)CCOCC1 [Example 529] |  |
| 33.6 nM | > 10 µM | 0.0522 µM | O=C(NO)C1(S(=O)(=O)c2ccc(OCCc3cccnc3)cc2)CCOCC1 [Example 557] |  |
| 30.4 nM | 5.1 µM | 1.36 µM | Cc1ccc(NC(=O)CCCOc2ccc(S(=O)(=O)C3(C(=O)NO)CCOCC3)cc2)cc1I [Example 527] |  |

The remaining lines, values behind:

| Structure (SMILES) | Ki ([1]; value in parentheses) | Ki ([2]; value in parentheses) | Ki ([3]; value in parentheses) | further results |
| --- | --- | --- | --- | --- |
| COCCN1CCC(C(=O)NO)(S(=O)(=O)c2ccc(OCCCc3cccc(-c4ccc(F)c(F)c4)c3)cc2)CC1 [Example 52] |  |  |  | Ki [1, 4]: 617 nM; Ki [2, 4]: > 10 µM; Ki [3, 4]: > 10 µM |
| CCCCCCCOc1ccc(S(=O)(=O)C2(C(=O)NO)CCOCC2)cc1 [Example 507] | 0.44 nM | 3.59 µM | 0.444 µM |  |
| O=C(NO)C1(S(=O)(=O)c2ccc(OCCc3cccc(-c4cc(Cl)cc(Cl)c4)c3)cc2)CCOCC1 [Example 126] |  |  |  | Ki ([1]; value in parenthesis): > 10000 nM; Ki ([2]; value in parenthesis): > 10 µM; Ki ([3]; value in parenthesis): > 10 µM |
| CCc1ccc(COc2ccc(S(=O)(=O)C3(C(=O)NO)CCOCC3)cc2)cn1 [Example 552] | 2.22 nM | > 10 µM | 2.44 µM |  |
| COCCN1CCC(C(=O)NO)(S(=O)(=O)c2ccc(OCCCc3cccc(-c4cccs4)c3)cc2)CC1 [Example 510] | 39.8 nM | > 10 µM | 2.18 µM |  |
| CCCc1ccc(COc2ccc(S(=O)(=O)C3(C(=O)NO)CCOCC3)cc2)cn1 [Example 550] | 7.51 nM | > 10 µM | 2.18 µM |  |
| COCCN1CCC(C(=O)NO)(S(=O)(=O)c2ccc(OCCCc3cccc(-c4cccnc4)c3)cc2)CC1 [Example 509] | 50.9 nM | > 10 µM | 4.16 µM |  |
| O=C(NCCOc1ccc(S(=O)(=O)C2(C(=O)NO)CCOCC2)cc1)c1c[nH]c2ccccc12 [Example 562] | 786 nM | 2.74 µM | 9.27 µM |  |
| O=C(NO)C1(S(=O)(=O)c2ccc(OCCc3cccc(-c4cc(F)cc(F)c4)c3)cc2)CCOCC1 [Example 110] |  |  |  | Ki ([1]; value in parenthesis): 4340 nM; Ki ([2]; value in parenthesis): > 10 µM; Ki ([3]; value in parenthesis): > 10 µM |
| O=C(NO)C1(S(=O)(=O)c2ccc(OCCCc3cccc(-c4ccc(Cl)c(Cl)c4)c3)cc2)CCOCC1 [Example 169] |  |  |  | Ki ([1]; value in parenthesis): 6500 nM; Ki ([2]; value in parenthesis): > 10 µM; Ki ([3]; value in parenthesis): > 10 µM |
| CCCCc1ccc(CCCOc2ccc(S(=O)(=O)C3(C(=O)NO)CCOCC3)cc2)cn1 [Example 533] | 141 nM | > 10 µM | 6.68 µM |  |
| O=C(NO)C1(S(=O)(=O)c2ccc(OCCOc3cncnc3)cc2)CCOCC1 [Example 554] | 442 nM | > 10 µM | > 10 µM |  |
| CCCC(=O)CCCOc1ccc(S(=O)(=O)C2(C(=O)NO)CCOCC2)cc1 [Example 505] | 10.2 nM | 0.85 µM | 0.962 µM |  |
| O=C(NO)C1(S(=O)(=O)c2ccc(OCCCOc3cccnc3)cc2)CCOCC1 [Example 560] | 7.17 nM | > 10 µM | 0.549 µM |  |
| COCCN1CCC(C(=O)NO)(S(=O)(=O)c2ccc(OCCc3cccc(-c4ccccn4)c3)cc2)CC1 [Example 548] | 279 nM | > 10 µM | 7.42 µM |  |
| COCCN1CCC(C(=O)NO)(S(=O)(=O)c2ccc(OCCc3cccc(-c4cccnc4)c3)cc2)CC1 [Example 539] | 85.5 nM | 9.13 µM | 1.18 µM |  |
| COCCN1CCC(C(=O)NO)(S(=O)(=O)c2ccc(OCCNC(=O)c3cc4ccccc4o3)cc2)CC1 [Example 553] | 71.2 nM | > 10 µM | 2.26 µM |  |
| O=C(NO)C1(S(=O)(=O)c2ccc(OCCCc3nc(C4CCCCC4)no3)cc2)CCN(C2CC2)CC1 [Example 137] |  |  |  | Ki ([1]; value in parenthesis): 604 nM; Ki ([2]; value in parenthesis): > 10 µM; Ki ([3]; value in parenthesis): > 10 µM |
| O=C(NO)C1(S(=O)(=O)c2ccc(OCCc3cccc(-c4ccc(Cl)c(Cl)c4)c3)cc2)CCOCC1 [Example 121] |  |  |  | Ki ([1]; value in parenthesis): > 10000 nM; Ki ([2]; value in parenthesis): > 10 µM; Ki ([3]; value in parenthesis): > 10 µM |

| Structure (SMILES) | Ki ([1]; value in parentheses) | Ki ([2]; value in parentheses) | Ki ([3]; value in parentheses) | further results |
| --- | --- | --- | --- | --- |
| COCCN1CCC(C(=O)NO)(S(=O)(=O)c2ccc(OCCCc3cncc(-c4ccccc4)c3)cc2)CC1 [Example 508] | 160 nM | 4.85 µM | 2.79 µM |  |
| Cc1ccc(-c2cccc(CCOc3ccc(S(=O)(=O)C4(C(=O)NO)CCOCC4)cc3)c2)cc1C [Example 117] |  |  |  | Ki ([1]; value in parenthesis): 9910 nM; Ki ([2]; value in parenthesis): > 10 µM; Ki ([3]; value in parenthesis): > 10 µM |
| COCCN1CCC(C(=O)NO)(S(=O)(=O)c2ccc(OCCCc3nc(-c4ccc(CC(C)C)cc4C)no3)cc2)CC1 [Example 128] |  |  |  | Ki ([1]; value in parenthesis): 3550 nM; Ki ([2]; value in parenthesis): > 10 µM; Ki ([3]; value in parenthesis): > 10 µM |
| COCCN1CCC(C(=O)NO)(S(=O)(=O)c2ccc(OCCCc3cccc(-c4ccc(C#N)cc4)c3)cc2)CC1 [Example 514] | 224 nM | > 10 µM | 4.08 µM |  |
| CC(C)c1ccc(-c2cccc(CCOc3ccc(S(=O)(=O)C4(C(=O)NO)CCOCC4)cc3)c2)cc1 [Example 109] |  |  |  | Ki ([1]; value in parenthesis): > 10000 nM; Ki ([2]; value in parenthesis): > 10 µM; Ki ([3]; value in parenthesis): > 10 µM |
| O=C(NO)C1(S(=O)(=O)c2ccc(OCCCc3cccc(-c4cc(Cl)cc(Cl)c4)c3)cc2)CCOCC1 [Example 172] |  |  |  | Ki ([1]; value in parenthesis): 9440 nM; Ki ([2]; value in parenthesis): > 10 µM; Ki ([3]; value in parenthesis): > 10 µM |
| COCCN1CCC(C(=O)NO)(S(=O)(=O)c2ccc(OCCCc3nc(-c4ccc(C5(c6ccccc6)CC5)cc4)no3)cc2)CC1 [Example 185] |  |  |  | Ki ([1]; value in parenthesis): 220 nM; Ki ([2]; value in parenthesis): > 10 µM; Ki ([3]; value in parenthesis): > 10 µM |
| COCCN1CCC(C(=O)NO)(S(=O)(=O)c2ccc(OCCc3ccc(-c4ccc(C#N)cc4)cc3)cc2)CC1 [Example 543] | 207 nM | > 10 µM | 3.09 µM |  |
| CCCCC(=O)CCCOc1ccc(S(=O)(=O)C2(C(=O)NO)CCOCC2)cc1 [Example 506] | 11.4 nM | 1.47 µM | 0.681 µM |  |
| COCCN1CCC(C(=O)NO)(S(=O)(=O)c2ccc(OCCCc3cccc(-c4ccc(Cl)cc4)c3)cc2)CC1 [Example 50] |  |  |  | Ki [1, 4]: 304 nM; Ki [2, 4]: > 10 µM; Ki [3, 4]: > 10 µM |
| Cc1cc(-c2cccc(CCCOc3ccc(S(=O)(=O)C4(C(=O)NO)CCOCC4)cc3)c2)ccc1Cl [Example 166] |  |  |  | Ki ([1]; value in parenthesis): 8690 nM; Ki ([2]; value in parenthesis): > 10 µM; Ki ([3]; value in parenthesis): > 10 µM |
| COCCN1CCC(C(=O)NO)(S(=O)(=O)c2ccc(OCCCc3cccc(-c4ccccc4F)c3)cc2)CC1 [Example 512] | 25.7 nM | > 10 µM | > 10 µM |  |
| CN1CCC(C(=O)NO)(S(=O)(=O)c2ccc(SCCNC(=O)c3cc4ccccc4o3)cc2)CC1 [Example 536] | 3400 nM | > 10 µM | > 10 µM |  |
| O=C(NO)C1(S(=O)(=O)c2ccc(OCCc3cccc(-c4cccc(F)c4)c3)cc2)CCOCC1 [Example 111] |  |  |  | Ki ([1]; value in parenthesis): 2680 nM; Ki ([2]; value in parenthesis): > 10 µM; Ki ([3]; value in parenthesis): > 10 µM |
| Cc1ccccc1-c1cccc(CCOc2ccc(S(=O)(=O)C3(C(=O)NO)CCOCC3)cc2)c1 [Example 116] |  |  |  | Ki ([1]; value in parenthesis): 5550 nM; Ki ([2]; value in parenthesis): > 10 µM; Ki ([3]; value in parenthesis): > 10 µM |
| C#Cc1ccc(-c2cccc(CCCOc3ccc(S(=O)(=O)C4(C(=O)NO)CCN(CCOC)CC4)cc3)c2)cc1 [Example 646] | 76.2 nM | > 10 µM | 4.3 µM |  |
| COCCN1CCC(C(=O)NO)(S(=O)(=O)c2ccc(OCCc3cccc(-c4ccccc4F)c3)cc2)CC1 [Example 540] | 689 nM | > 10 µM | > 10 µM |  |
| CCc1ccc(CCCOc2ccc(S(=O)(=O)C3(C(=O)NO)CCOCC3)cc2)cn1 [Example 535] | 128 nM | > 10 µM | 3.87 µM |  |
